# Measured values as given in patent US9060966B2, “Use of 2,5-dihydroxybenzene derivatives for the treatment of arthritis and pain” (priority 2006, dated 2015).
# Entries after “also recorded” stand apart in the source; their conditions may differ.
# Key:
# [1] = test system: uterine tissue implanted in the peritoneal cavity; test: Rat model of endometriosis (autologous implant, histology); assay type: in vivo; settings: 200 mg/kg/day i.p., two weeks
# Text: In these rats, the epithelial layer (a) and the stroma (b) are clearly observed in the endometrium, while longitudinal (c) and circular (d) normal layers of smooth muscle cells are observed in the myometrium adjacent to the peritoneal tissue (e). […] The neovascularization observed in the uterine tissue implanted in control rats (shown with arrows in A) is not present in rats treated with 2,5-dihydroxybenzenesulfonic (DHBS) (C). • D) Magnification of the area marked with a box in C.
# Sprague-Dawley rats were anesthetized as described (Fernandez-Tornero C et al. J Biol Chem, 2003). Endometriotic lesions were induced using a known rat model of endometriosis (Vernon M W and Wilson E A. Fertil Steril, 1985). In summary, 2 mm fragments of the cervix were autologously implanted between branches in the mesenteric vascular tree. The rats were treated or not treated (control) daily during two weeks after the surgery with 2,5-dihydroxybenzene sulfonic acid (DHBS) (200 mg/kg; i.p.). Then, the rats were sacrificed and the endometrial ectopic tissue was removed to make its histological examination. […] This example illustrates the therapeutic activity of 2,5-dihydroxybenzene sulfonate (DHBS) in the treatment of endometriosis.
# [2] = test system: Leishmania major; test: Experimental infection with Leishmania major in a mouse model (paw thickness); assay type: in vivo, mice
# Text: (§1) The vehicle group consisted of infected animals that received daily injections of saline (0.9% NaCl) during the same period as DHBS. Results are expressed as the mean±the standard deviation of the increases in size of the inoculated paw (right) compared to the non-inoculated paw (left) in mm obtained with a Vernier caliper each week from 0 to 10. ** indicates p<0.01 vs. the vehicle-treated group by a Student t-test. 6 animals were used for each group.
# as §1, with “from” for “during”, “moment of the infection, while the control group consisted of non-infected animals.” for “same period as DHBS.”, “9. *” for “10. **”, “p<0.05” for “p<0.01”, “vehicle” for “vehicle-treated”, “7” for “6”
# as §1, with “from” for “during”, “third week after the infection.” for “same period as DHBS.”, “9. *” for “10. **”, “p<0.05” for “p<0.01”, “vehicle” for “vehicle-treated”, “7” for “6”
# This model is based in the massive inoculation of Leishmania promatigotes in the mouse paw pad. Under these conditions, the parasite induces a progressive inflammation correlated with the multiplication of parasites at the site of inoculation. BALB/c strain female mice that developed severe and uncontrolled injuries were used (Foote S J, Handman E. Brief Funct Genomic Proteomic, 2005). This model has been used in pharmacology to monitor the therapeutic capacity of new leishmanicide compounds and the preventive capacity of potential vaccines against leishmaniasis ((Nelson K G et al. Antimicrob Agents Chemother. 2006).
# The animals were inoculated with 5×10^6 of L. major promastigotes (strain Hervás) in 50 μL of PBS into the plantar pad of the right back paw. As negative control of the infection, a group of mice inoculated with 50 μL of PBS was used. The sizes of the lesions were measured every 7 days until the animals were sacrificed (week 9) using a Vernier caliper. The thickness of the right back paw (infected) and the left back paw (uninfected) of all the animals was measured at the base of the fifth toe. The progression of the inflammation is represented as the difference in thickness between the infected and the non-infected paws. […]
compound,measurement,setting,value
"O=S(=O)(O)c1cc(O)ccc1O [DHBS, 2,5-dihydroxybenzenesulfonic acid]","histology of the implanted uterine (cervix) tissue, hematoxylin-eosin",[1],athrophy of the cervix tissue implanted; also recorded: Degeneration of the uterine tissue implanted
same,neovascularization of the implanted uterine tissue,[1],not present
"CC(=O)Oc1ccc(OC(C)=O)c(S(=O)(=O)[O-])c1.[K+] [DABS, potassium 2,5-diacetoxybenzene sulfonate]",size of the lesion (infected vs non-infected paw),"[2]; 200 mg/kg/day i.p. from day 0 to week 9, effect from the third week post-infection",statistically significant reduction in the size of the lesion
same,size of the lesion (infected vs non-infected paw),"[2]; 200 mg/kg/day i.p. from third week after inoculation, effect from the eighth week",significantly smaller; also recorded: Reduction in the size of the lesion
